{
  "source": "patent US20110236501A1",
  "about": "“INJECTABLE DUAL DELIVERY ALLOGRAPH BONE/POLYMER COMPOSITE FOR TREATMENT OF OPEN FRACTURES” (Vanderbilt University, priority 2007, published 2011)",
  "key": {"[1]": {"assay": "In vitro release of vancomycin from PUR", "type": "physicochemical", "description": "Methods: rhBMP-2 was purchased from R&D systems. V-FB was obtained by precipitation of vancomycin solution at pH 8. […] In vitro release experiment was carried out in PBS, with medium refreshed as indicated. […] The scaffolds were then tested in critical sized rat femoral segmental defects, contaminated or non-contaminated. After 4 or 8 weeks, the defects are harvested, and both the new bone formation and infection control were examined."}, "MC3T3 cells": {"system": "MC3T3 cells", "assay": "In vitro cell proliferation assay of released PDGF-BB", "type": "cell-based", "settings": "released PDGF-BB vs fresh PDGF-BB", "description": "To assess the in vitro bioactivity of released PDGF-BB from the polyurethane scaffolds, releasates at day 1, 3, and 7 from PUR/PDGF-BB and PUR/G-PDGF-BB scaffolds were lyophilized and reconstituted to the same PDGF-BB concentration. After MC3T3 cells attached to the 96-well plates, the serum content in the cell culture medium was decreased from 10% to 2.5%. At the same time, the reconstituted releasates were added at dosages of 3 and 10 ng/ml. Fresh PDGF-BB (i.e., not released from the scaffolds but used directly as received from the supplier) was the positive control. Cell numbers were measured at time points of 24 and 72 h by staining the DNA and measuring fluorescence on a plate reader. […] At the 72 h time point, a dose-dependent effect was observed, although it was not evident at the 24 h time point."}, "[2]": {"assay": "In vitro release of PDGF-BB (I-125 labeling and ELISA)", "type": "physicochemical", "settings": "for total release of PDGF-BB: PUR scaffold with 2 wt % glucose", "description": "To enhance the release of PDGF-BB, 2 wt % glucose was added to the scaffolds. The release profile was monitored by two methods. In the first approach, PDGF-BB was radiolabeled with iodine-125 (I-125) and a gamma reading machine was used to monitor the release kinetics. Release of PDGF-BB was also measured by ELISA assay using the liquid releasates. Both methods yield similar release profiles (FIG. 13), characterized by a burst release on the first day. The ELISA assay detected a lower total release (around 65%, compared with around 85% for I-125 labeling method), which is possibly due to denaturation of some fraction of the released protein which cannot be detected by its antibody.\nTo mitigate the burst release, another strategy was adopted to achieve controlled release of PDGF-BB from polyurethane scaffolds. Heparin was bound to the surface of microparticles made from amine-terminated PLGA (average size 50 μm) using standard carbodiimide techniques. PDGF-BB was then loaded onto the particle surface through heparin binding. […] To enhance the stability of the protein on the PLGA particle surface, the particles were granulated by mixing the particles with a small amount of gelatin solution followed by forcing through a 48-mesh sieve to form 110-μm granules. The granules were then added to the hardener component before reacting with isocyanate to form PUR/G-PDGF-BB polyurethane scaffolds. The PDGF-BB release from the granules is similar to that of particles when detected by I-125 labeling (FIG. 14A), but lower when measured by ELISA (FIG. 14B)."}, "S. aureus": {"system": "S. aureus", "settings": "cited from earlier work"}, "[3]": {"assay": "Solubility of tobramycin in polyester polyol", "type": "physicochemical", "description": "Tobramycin was added as a powder to the hardener prior to reaction with the triisocyanate resin in order to minimize its reactivity with the reactive two-component polyurethane. Tobramycin's five primary amino groups otherwise cause it to react rapidly with isocyanates when in solution. Tobramycin is insoluble in polyester polyol, the primary component in the hardener; consequently the tobramycin remains in the solid phase during the chemical reaction. A loading of 8 wt-% was chosen to approximate the level of tobramycin delivered from the equivalent volume of PMMA cement beads, but higher loading can be achieved if necessary."}, "[4]": {"assay": "In vitro release of BSA-FITC / protein from PUR scaffolds", "type": "physicochemical", "settings": "added in solution, after 21 days", "description": "A scaffold of the present invention was prepared by one-shot reactive liquid molding of HDIt and hardener containing polyester triol and PEG. BSA-FITC was added to the hardener component prior to mixing with HDIt. Considering that proteins incorporate groups with active hydrogens (e.g., hydroxyl groups and amines), there is a concern that the protein will react with the polyisocyanate, resulting in damage to the protein. […] To protect the protein from reacting with the polyisocyanate, BSA-FITC was lyophilized with a varying amount of glucose excipient and then added to the hardener as a powder. […] The glucose dosage plays an important role in the release profile; the presence of 0.5% and 2% glucose increased the total amount released after 21 days and increased the initial burst release. Further increasing the glucose dosage to 5% decreased the total release.\nTo evaluate the effect of encapsulation protein into PLGA particles on the release kinetics from PUR scaffold, small pieces of PUR scaffold incorporated with BSA-FITC powder or PLGA particles encapsulated with BSA-FITC were incubated in a-MEM containing 1% BSA under 37° C. the medium was changed as indicated in FIG. 18. The amount of BSA-FITC was determined by emission fluorescence at 530 nm after excitation at 485 nm."}},
  "note": "Where two headings read alike, the source gives them in different places.",
  "data": [
    {"compound": "CN[C@H](CC(C)C)C(=O)N[C@H]1C(=O)N[C@@H](CC(N)=O)C(=O)N[C@H]2C(=O)N[C@H]3C(=O)N[C@H](C(=O)N[C@H](C(=O)O)c4cc(O)cc(O)c4-c4cc3ccc4O)[C@H](O)c3ccc(c(Cl)c3)Oc3cc2cc(c3O[C@@H]2O[C@H](CO)[C@@H](O)[C@H](O)[C@H]2O[C@H]2C[C@](C)(N)[C@H](O)[C@H](C)O2)Oc2ccc(cc2Cl)[C@H]1O", "note": "[V-FB, vancomycin free base]", "values": [
      {"measurement": "duration of vancomycin release above the MIC for S. aureus", "setting": "[1]", "value": "up to 8 weeks"},
      {"measurement": "duration of vancomycin release above the MIC for S. aureus", "setting": "[1]; listed as vancomycin", "value": "over 8 weeks"}
    ]},
    {"compound": "PDGF-BB: Platelet-derived growth factor-BB", "values": [
      {"measurement": "decreased activity compared with the positive control", "setting": "MC3T3 cells", "value": 20, "unit": "%"},
      {"measurement": "protein release", "setting": "[2]; PDGF-BB added to PUR as a powder without the glucose excipient", "value": "negligible protein release"},
      {"measurement": "total release of PDGF-BB", "setting": "[2]; ELISA", "value": "around 65%"},
      {"measurement": "total release of PDGF-BB", "setting": "[2]; I-125 labeling", "value": "around 85%"}
    ]},
    {"compound": "NC[C@H]1O[C@H](O[C@H]2[C@H](O)[C@@H](O[C@H]3O[C@H](CO)[C@@H](O)[C@H](N)[C@H]3O)[C@H](N)C[C@@H]2N)[C@H](N)C[C@@H]1O", "note": "[tobramycin]", "values": [
      {"measurement": "minimum bactericidal concentration", "setting": "S. aureus", "value": 16, "unit": "µg/mL"},
      {"measurement": "minimum inhibitory concentration", "setting": "S. aureus", "value": "4 to 8", "unit": "µg/mL"},
      {"measurement": "solubility in polyester polyol", "setting": "[3]", "value": "insoluble"}
    ]},
    {"compound": "BSA-FITC: Bone serum albumin-fluorescein isothiocyanate", "values": [
      {"measurement": "release of BSA-FITC", "setting": "[4]", "value": "< 20", "unit": "%"}
    ]}
  ]
}
